Assay results taken from publication PMC9814091, “The making of a potent L-lactate transport inhibitor” (Communications Chemistry, 2021).
Read-outs that look alike come from different tables or passages of the source.

What was measured:
SfMCT [1] = target: T1, SfMCT (Syntrophobacter fumaroxidans, UniProt A0LNN5); assay: cell-based; assay type: cell-based; settings: for times more potent than BA (starting compound): ratio of Ki values versus BA
T1 construct: expressed in transfected cells; host or cells: E. coli JA202 (MC4100 glcA::cat lldP::kan) transformed with pEXT20-SfMCT-3C-10His
T1 sequence (A0LNN5 1-412): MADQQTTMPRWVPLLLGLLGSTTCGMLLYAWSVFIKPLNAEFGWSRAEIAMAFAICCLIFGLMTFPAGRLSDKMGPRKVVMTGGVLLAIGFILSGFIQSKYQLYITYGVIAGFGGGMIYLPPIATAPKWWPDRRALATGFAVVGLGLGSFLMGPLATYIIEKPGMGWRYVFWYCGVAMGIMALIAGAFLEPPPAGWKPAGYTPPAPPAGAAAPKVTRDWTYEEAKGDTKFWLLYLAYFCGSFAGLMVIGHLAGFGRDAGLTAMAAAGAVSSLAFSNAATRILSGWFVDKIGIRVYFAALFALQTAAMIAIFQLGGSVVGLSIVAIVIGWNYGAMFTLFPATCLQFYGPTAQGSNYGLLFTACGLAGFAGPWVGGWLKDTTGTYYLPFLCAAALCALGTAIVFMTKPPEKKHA
From the text: The previously characterized ligand binding site provides space to accommodate molecules that are larger than TSA. […] Only molecules containing one carboxylate-group were considered (i.e., monocarboxylates) as R280 (TM8) is the only positively-charged residue in the ligand binding site region. […] The binding site also contains hydrophobic and aromatic residues, which can be involved in hydrophobic and π-stacking interactions with bound molecules. Therefore, the focus of the screen was set on aromatic monocarboxylates, which are summarized in Supplementary Fig. 1. To evaluate the inhibitory effect of the selected molecules, an inhibition assay was set up where the transport of [^14C]L-lactate through SfMCT was measured in the absence and presence of different inhibitors at decreasing concentrations. In a first step, the inhibitory effects of BA, as well as hydroxylated and methylated BA derivatives on L-lactate transport, were investigated at a concentration of 500 µM (Fig. 1A, red).
(§1) Uptake experiments were done as described previously[6],[40]. Overnight precultures of E. coli JA202 (MC4100 glcA::cat lldP::kan)[42], which were transformed with a plasmid carrying SfMCT (pEXT20-SfMCT-3C-10His), were diluted 1:200 into LB-medium supplemented with 100 μg/ml ampicillin. Cultures were grown at 37 °C and 180 r.p.m. in an incubator shaker (Multitron, Infors HT). At OD600 ~0.5, isopropyl-β-D-thiogalactopyranoside was added to the culture to a final concentration of 250 µM to induce SfMCT expression. In the case of E. coli MC4100 (DSM 6574, German Collection of Microorganisms and Cell Cultures), an overnight preculture was diluted 1:200 into LB-medium supplemented with 50 μg/ml streptomycin and grown at 37 °C and 180 r.p.m. in an incubator shaker (Multitron, Infors HT). Bacteria were harvested 4 h post-induction (E. coli JA202) or 6 h post-inoculation (E. coli MC4100) (5200 × g, 10 min, room temperature). The supernatant was discarded and the bacteria were gently resuspended in uptake buffer (20 mM Bis-Tris propane-HCl (pH 6.7), 250 mM KCl). The density of the bacteria suspension was adjusted to OD600 12. Transport experiments were done in a reaction volume of 50 µl, which consisted of 20 µl cell-suspension (2.4 × 10^8 bacteria), 10 µl substrate master mix (67 µM sodium L-lactate spiked with [14C(U)] L-lactic acid sodium salt ([^14C]L-lactate, American Radiolabeled Chemicals) to a specific activity of 0.15 Ci/mmol) and 20 µl monocarboxylate inhibitor solution. […] All monocarboxylate inhibitors were purchased from Merck (i.e., SigmaAldrich) with the exception of 6-methyl-salicylate (6MSA) that was purchased from Fluorochem. Uptake experiments were performed in 2 ml reaction tubes (Eppendorf) at 30 °C under agitation (1000 r.p.m., Thermomixer compact, Eppendorf). After 30 min, reactions were stopped by adding 900 μl stop buffer (20 mM HEPES-NaOH (pH 7.5), 150 mM NaCl) followed by centrifugation (21,000 × g, 4 min, room temperature). Pelleted bacteria were then washed two times with 900 μl stop buffer to remove free radioligand. Finally, bacteria were lysed using 50 μl 5% (w/v) sodium dodecylsulfate and transferred into a 96-well plate (Optiplate, PerkinElmer). 150 µl scintillation cocktail (MicroScint 40, PerkinElmer) were added to each well before measuring each well for 2 min with a scintillation counter (TopCount NXT, PerkinElmer). For data analysis Prism6 (GraphPad Software) was used.

[2] = test system: E. coli L-lactate permeases (i.e., LldP and GlcA); assay: [14C]L-lactate transport into E. coli MC4100 (test for a protonophoric effect); assay type: cell-based; settings: 100 µM compound
SfMCT Y331F mutant = target: T2, SfMCT Y331F mutant (Syntrophobacter fumaroxidans, UniProt A0LNN5, Y331F); assay type: cell-based; settings: 25 µM 1OHN2C; 10 µM N2C, 3PP, 2M3PP
T2 construct: expressed in transfected cells; host or cells: E. coli JA202 (inferred: same uptake protocol as wild type)
Protocol: as §1, with “Finally, bacteria were lysed using 50 μl 5% (w/v) sodium dodecylsulfate and transferred into a 96-well plate (Optiplate, PerkinElmer). 150 µl scintillation cocktail (MicroScint 40, PerkinElmer) were added to each well before measuring each well for 2 min with a scintillation counter (TopCount NXT, PerkinElmer). For data analysis Prism6 (GraphPad Software) was used.” left out

SfMCT [3] = target: T1, SfMCT; design: method as in PMID 31201333; settings: cited from earlier work
SfMCT [4] = target: T1, SfMCT; assay: Transport assay with radiolabeled monocarboxylates as potential SfMCT substrates; assay type: cell-based; settings: 40 µM 14C-labeled compound, 0.1 µCi per reaction
[5] = inhibitor 25 µM, naphthoate derivatives (Fig. 1A, orange)
[6] = inhibitor 100 µM, methylated SA derivatives and 3OH4MBA (Fig. 1A, blue)
[7] = inhibitor 10 µM, hydroxylated and methylated 3PP derivatives (Fig. 1A, magenta)
[8] = [14C]L-lactate uptake, SfMCT-expressing E. coli JA202, pH 6.7, 30 °C, 30 min, read-out: Ki (inhibition of L-lactate transport)
[9] = inhibitor 500 µM, BA and hydroxylated and methylated BA derivatives (Fig. 1A, red)

T2 sequence (A0LNN5 whole entry Y331F): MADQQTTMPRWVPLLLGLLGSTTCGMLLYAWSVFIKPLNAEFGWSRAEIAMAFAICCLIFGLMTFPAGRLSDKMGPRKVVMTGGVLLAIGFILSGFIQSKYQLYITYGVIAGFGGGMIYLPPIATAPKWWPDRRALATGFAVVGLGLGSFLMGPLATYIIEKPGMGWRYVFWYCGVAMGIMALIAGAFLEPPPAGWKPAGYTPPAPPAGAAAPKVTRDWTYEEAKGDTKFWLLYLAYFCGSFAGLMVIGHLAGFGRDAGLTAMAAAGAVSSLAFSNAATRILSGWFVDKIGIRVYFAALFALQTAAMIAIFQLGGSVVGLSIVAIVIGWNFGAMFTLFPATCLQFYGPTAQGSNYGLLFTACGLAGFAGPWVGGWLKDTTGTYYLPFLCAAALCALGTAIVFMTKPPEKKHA

With `O=C(O)c1ccc2ccccc2c1O` [1OHN2C, 1-hydroxy-2-naphthoate] the Ki (SfMCT [1]) was 16.2 µM, the “inhibitory effect on L-lactate transport in the screen” value (from here on “inhibitory effect … in the screen”) (SfMCT [1]; [5]) was “strongest reduction of L-lactate transport among the tested naphthoate derivatives” and the “effect on [14C]L-lactate transport activity of E. coli MC4100” value (from here on “effect … of E. coli MC4100”) [2] was “no significant reduction”. For the same compound, the “reduction of L-lactate transport inhibition by the Y331F mutation versus wild type” value (SfMCT Y331F mutant) was ~ 2 fold.

For `Cc1ccc(C(=O)O)cc1O` [3OH4MBA, 3-hydroxy-4-methyl-benzoate], the “inhibitory effect … in the screen” value (SfMCT [1]; [6]) was “strongly reduced inhibition of L-lactate transport”.

`O=C(O)/C=C/c1ccccc1` [CA, trans-cinnamate] showed a Ki (SfMCT [1]) of 2.5 µM.

With `O=C(O)CCc1cccc(O)c1` [3OH3PP, 3-(3-hydroxyphenyl)-propionate] the “inhibitory effect … in the screen” value (SfMCT [1]; [7]) was “strongest L-lactate transport reduction among the tested hydroxylated derivatives”.

In the case of `N#CC(C#N)=NNc1cccc(Cl)c1` [CCCP, carbonyl cyanide 3-chlorophenylhydrazone, reference compound], the “effect … of E. coli MC4100” value [2] is reported as “reduced the uptake activity almost”.

In the case of `O=C(O)c1ccc2ccccc2c1` [N2C, 2-naphthoate], the Ki (SfMCT [1]; [8]) is reported as 2.4 µM, the “inhibitory effect … in the screen” value (SfMCT [1]; [5]) is reported as “strongest reduction of L-lactate transport among the tested naphthoate derivatives” and the “effect … of E. coli MC4100” value [2] is reported as “no significant reduction”. For the same compound, the “reduction of L-lactate transport inhibition by the Y331F mutation versus wild type” value (SfMCT Y331F mutant) was ~ 2 fold.

`O=C(O)c1ccccc1` [BA, benzoate] gave a Ki (SfMCT [1]) of 431 µM.

In the case of `O=C(O)c1ccccc1S` [TSA, thiosalicylate], the “transport of the compound by SfMCT” value (SfMCT [3]) is listed as “non-transported”.

In the case of `O=C(O)c1ccccc1O` [SA, salicylate], the Ki (SfMCT [1]) is reported as 362 µM, the “inhibitory effect … in the screen” value (SfMCT [1]; [9]) is reported as “strongest decrease in L-lactate transport activity” and the “transport of the radiolabeled compound by SfMCT” value (SfMCT [4]) is reported as “does not transport”.

For `Cc1ccc(C(=O)O)cc1` [4MBA, 4-methyl-benzoate], the Ki (SfMCT [1]) was 13.4 µM, the “inhibitory effect … in the screen” value (SfMCT [1]; [9]) was “strongest reduction of L-lactate transport activity” and the “times more potent than BA (starting compound)” value (“times more potent than BA” for short) (SfMCT [1]) was ~ 30 times.

For `Cc1ccccc1CCC(=O)O` [2M3PP, 3-(2-methylphenyl)-propionate], the Ki (SfMCT [1]; [8]) was 0.469 µM, the “inhibitory effect … in the screen” value (SfMCT [1]; [7]) was “strongest inhibitory effect on L-lactate transport among the tested methylated derivatives” and the “times more potent than BA” value (SfMCT [1]) was ~1000 times. For the same compound, the “effect … of E. coli MC4100” value [2] was “no significant reduction” and the “reduction of L-lactate transport inhibition by the Y331F mutation versus wild type” value (SfMCT Y331F mutant) was ~ 2 fold.

With `O=C(O)CCc1ccccc1` [3PP, 3-phenylpropionate] the Ki (SfMCT [1]) was 0.812 µM, the “inhibitory effect on L-lactate transport in the molecular ruler experiment” value (SfMCT [1]; BA, PA, 3PP and 4PB compared (Fig. 1A, black)) was “most potent inhibitor” and the “times more potent than BA” value (SfMCT [1]) was ~ 530 times. The “effect … of E. coli MC4100” value [2] was “no significant reduction” and the “transport of the radiolabeled compound by SfMCT” value (SfMCT [4]) was “does not transport”.

In the case of `Cc1ccc(C(=O)O)c(O)c1` [4MSA, 4-methyl-salicylate], the Ki (SfMCT [1]) is reported as 24.4 µM and the “inhibitory effect … in the screen” value (SfMCT [1]; [6]) is reported as “strongest reduction of L-lactate transport among the methylated SA-derivatives”.
